From article PMC3335879, “Selective Inhibitors of Protozoan Protein N-myristoyltransferases as Starting Points for Tropical Disease Medicinal Chemistry Programs” (PLoS Neglected Tropical Diseases, 2012)
Read-outs that look alike come from different tables or passages of the source.

Legend:
T brucei NMT = target: T1, T brucei NMT (Trypanosoma brucei brucei, UniProt Q388H8); experiment: T. brucei NMT scintillation proximity dose-response assay; assay type: biochemical
T1 construct: made in house
T1 sequence (Q388H8 1-446): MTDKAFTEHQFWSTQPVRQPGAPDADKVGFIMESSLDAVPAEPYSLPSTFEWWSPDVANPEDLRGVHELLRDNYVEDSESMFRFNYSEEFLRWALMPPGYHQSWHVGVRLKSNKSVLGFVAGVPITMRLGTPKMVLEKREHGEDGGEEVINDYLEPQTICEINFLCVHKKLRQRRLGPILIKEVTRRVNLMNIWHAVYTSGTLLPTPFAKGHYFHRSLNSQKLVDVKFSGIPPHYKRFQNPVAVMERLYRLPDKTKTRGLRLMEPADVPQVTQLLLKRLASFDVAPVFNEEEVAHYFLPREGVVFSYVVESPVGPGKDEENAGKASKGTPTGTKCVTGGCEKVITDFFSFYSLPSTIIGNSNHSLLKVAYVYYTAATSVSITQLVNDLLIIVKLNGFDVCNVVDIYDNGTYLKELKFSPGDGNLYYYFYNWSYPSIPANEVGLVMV

HsNMT2 = target: T2, HsNMT2 (Homo sapiens, UniProt O60551); experiment: Human NMT2 scintillation proximity dose-response assay; assay type: biochemical; conditions: Table 2; single determination; read-out: Hs2 IC50
T2 construct: made in house
T2 sequence (O60551 1-498): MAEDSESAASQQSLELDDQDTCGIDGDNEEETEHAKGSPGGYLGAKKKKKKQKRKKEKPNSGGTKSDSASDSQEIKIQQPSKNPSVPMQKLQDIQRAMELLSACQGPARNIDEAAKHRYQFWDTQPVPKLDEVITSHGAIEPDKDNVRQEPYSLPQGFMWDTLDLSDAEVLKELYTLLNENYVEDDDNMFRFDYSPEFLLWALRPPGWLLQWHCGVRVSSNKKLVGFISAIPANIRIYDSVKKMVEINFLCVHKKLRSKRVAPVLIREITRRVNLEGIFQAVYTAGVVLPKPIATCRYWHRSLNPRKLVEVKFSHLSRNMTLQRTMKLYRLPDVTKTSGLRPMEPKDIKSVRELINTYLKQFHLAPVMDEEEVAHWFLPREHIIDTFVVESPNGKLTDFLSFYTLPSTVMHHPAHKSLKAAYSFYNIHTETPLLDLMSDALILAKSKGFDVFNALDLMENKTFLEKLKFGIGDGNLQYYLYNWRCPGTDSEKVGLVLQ

HsNMT1 = target: T3, HsNMT1 (Homo sapiens, UniProt P30419); experiment: Human NMT1 scintillation proximity dose-response assay; assay type: biochemical; conditions: Table 2; single determination; read-out: Hs1 IC50
T3 construct: made in house
T3 sequence (P30419 1-496): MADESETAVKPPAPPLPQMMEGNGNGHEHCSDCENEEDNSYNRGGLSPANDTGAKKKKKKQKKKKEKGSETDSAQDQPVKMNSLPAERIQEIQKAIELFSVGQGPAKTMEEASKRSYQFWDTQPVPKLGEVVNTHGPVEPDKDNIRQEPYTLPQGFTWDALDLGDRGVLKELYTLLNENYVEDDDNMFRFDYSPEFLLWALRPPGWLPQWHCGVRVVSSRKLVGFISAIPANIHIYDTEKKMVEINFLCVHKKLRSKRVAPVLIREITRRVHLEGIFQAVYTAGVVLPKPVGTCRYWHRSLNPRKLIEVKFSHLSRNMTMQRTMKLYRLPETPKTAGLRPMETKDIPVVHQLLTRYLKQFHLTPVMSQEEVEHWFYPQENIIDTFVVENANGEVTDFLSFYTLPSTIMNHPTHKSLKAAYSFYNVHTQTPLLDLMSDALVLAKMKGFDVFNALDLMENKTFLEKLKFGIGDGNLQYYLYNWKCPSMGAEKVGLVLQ

P. falciparum NMT = target: T4, P. falciparum NMT (Plasmodium falciparum, UniProt Q8ILW6); experiment: biochemical; conditions: for Pfal LE: ligand efficiency calculated from Pfal NMT IC50; for Pfal/Ldon Sel: selectivity for Pfal NMT over Ldon NMT derived from IC50 values
T4 construct: made in house
T4 sequence (Q8ILW6 1-410): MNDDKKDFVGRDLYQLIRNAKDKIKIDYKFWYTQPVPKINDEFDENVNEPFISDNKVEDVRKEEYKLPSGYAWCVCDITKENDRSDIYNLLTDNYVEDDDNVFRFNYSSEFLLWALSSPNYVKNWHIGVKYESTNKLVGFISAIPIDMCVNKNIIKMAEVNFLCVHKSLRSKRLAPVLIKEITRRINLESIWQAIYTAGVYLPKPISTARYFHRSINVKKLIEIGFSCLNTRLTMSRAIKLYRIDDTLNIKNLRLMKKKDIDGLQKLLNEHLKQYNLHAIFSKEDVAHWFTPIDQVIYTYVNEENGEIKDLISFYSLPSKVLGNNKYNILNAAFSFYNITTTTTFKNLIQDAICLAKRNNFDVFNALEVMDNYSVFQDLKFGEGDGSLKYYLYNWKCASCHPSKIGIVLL
Procedure: Recombinant P. falciparum (Swiss-Prot Q81LW6) and L. donovani NMTs (EMBL accession number FN555136) were produced at the University of York, using established protocols. An assay format based on scintillation proximity technology to monitor enzyme activity was used as previously described, [30]. […]
(§1) The reaction was initiated by adding 10 µL of the substrate mixture to each well containing the pre-incubated enzyme/compound mixture, and allowed to proceed at RT for 80 min. The reaction was quenched by the addition 20 µl of stop solution to each well. Stop solution consisted of 0.75 M MgCl2 (Sigma), 0.1 M phosphoric acid (Sigma) and 1 mg/ml of streptavidin-coated polystyrene SPA beads (Perkin-Elmer). Plates were sealed using topseals (Perkin-Elmer) and left overnight to allow the bead solution to settle. Radioactive counts were measured with an integration time of 300 sec per plate using the Leadseeker Generation 4 plate reader (GE Healthcare). Each plate included a positive control of 1 µM final assay concentration of DDD85646 [22] and 1% DMSO as a negative control. […] The data were analysed using Pfizer SIGHTS software and visualised using Spotfire software (TIBCO).

L. donovani NMT = L. donovani NMT (Leishmania donovani, UniProt D0AB09); experiment: biochemical; conditions: for Ldon LE: ligand efficiency calculated from Ldon NMT IC50
Sequence of L. donovani NMT (D0AB09 entry or part of it): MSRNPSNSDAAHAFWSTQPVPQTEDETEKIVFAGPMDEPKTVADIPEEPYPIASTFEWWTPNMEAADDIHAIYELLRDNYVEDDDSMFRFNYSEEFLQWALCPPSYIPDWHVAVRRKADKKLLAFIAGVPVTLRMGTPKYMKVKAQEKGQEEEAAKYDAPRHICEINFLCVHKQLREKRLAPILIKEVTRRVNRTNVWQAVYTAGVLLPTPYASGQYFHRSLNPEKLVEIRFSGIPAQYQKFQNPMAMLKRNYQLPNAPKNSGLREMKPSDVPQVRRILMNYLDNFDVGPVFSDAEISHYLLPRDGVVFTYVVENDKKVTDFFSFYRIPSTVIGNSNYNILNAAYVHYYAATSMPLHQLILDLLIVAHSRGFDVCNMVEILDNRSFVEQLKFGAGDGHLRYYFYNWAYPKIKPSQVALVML
Procedure: Recombinant P. falciparum (Swiss-Prot Q81LW6) and L. donovani NMTs (EMBL accession number FN555136) were produced at the University of York, using established protocols. An assay format based on scintillation proximity technology to monitor enzyme activity was used as previously described, [30].
The Pfizer Global Diverse Representative Set consisting of 150,000 compounds was screened at 20 µM final assay concentration. Assay plates were prepared by dispensing 0.1 µL of compound dissolved in DMSO using the Vario system (Cybio) into white 384-well plates (Greiner Bio-One).
as §1

[1] = Table 2, single determination, read-out: Tb IC50
[2] = Table 1, mean of 3 separate experiments, top concentration 80 µM, read-out: Pfal IC50
[3] = Table 2, mean of 3 determinations, read-out: Pfal IC50
[4] = Table 1, mean of 3 separate experiments, top concentration 80 µM, read-out: Ldon IC50
[5] = Table 2, mean of 3 determinations, read-out: Ldon IC50
[6] = Ldon IC50, Table 1, mean of 3 separate experiments, top concentration 80 µM
[7] = Ldon IC50, Table 2, mean of 3 determinations

Row | IC50 (T brucei NMT; [1]) | IC50 (HsNMT2) | IC50 (HsNMT1) | IC50 (P. falciparum NMT; [2]) | IC50 (P. falciparum NMT; [3]) | Pfal LE (P. falciparum NMT) | Pfal/Ldon Sel (P. falciparum NMT) | IC50 (L. donovani NMT; [4]) | IC50 (L. donovani NMT; [5]) | Ldon LE (L. donovani NMT) | SMILES | IC50 (L. donovani NMT; [6]) | IC50 (L. donovani NMT; [7]) | IC50 (T brucei NMT) | IC50 (P. falciparum NMT)
1 | > 80 µM | 1.59 µM | 0.57 µM | 1.72 µM | 1.72 µM | 0.34 | 22.5 | 38.7 µM | 38.7 µM | – | CNCC(=O)N1CC[C@@H](NC(=O)c2ccccc2C(F)(F)F)C1 [CP-854190] | – | – | – | –
2 | 1.5 µM | 14.7 µM | 5.2 µM | 71.9 µM | 71.9 µM | – | – | 0.093 µM | 0.093 µM | 0.35 | NC(CC(=O)N1CC(CO)C(c2ccc(Cl)cc2)C1)Cc1ccc(Cl)cc1 (centres unmarked) [PF-03402623] | – | – | – | –
3 | > 80 µM | 26.7 µM | 36.1 µM | > 80 µM | > 80 µM | – | – | 0.158 µM | 0.16 µM | 0.29 | c1cncc(CCNCc2cccc(-c3cccc(CN4CCc5ncsc5C4)c3)c2)c1 [PF-00075634] | – | – | – | –
4 | > 80 µM | 76 µM | 70 µM | 0.482 µM | 0.48 µM | 0.31 | 150 | 72 µM | 72 µM | – | Cc1cnc(CNC(=O)C2CN(c3nc(NCCN(C)C)ncc3Cl)C2)cn1 [PF-03531814] | – | – | – | –

Row | SMILES | IC50 (T brucei NMT; [1]) | IC50 (HsNMT2) | IC50 (HsNMT1) | IC50 (P. falciparum NMT; [2]) | IC50 (P. falciparum NMT; [3]) | Pfal LE (P. falciparum NMT) | Pfal/Ldon Sel (P. falciparum NMT) | IC50 (L. donovani NMT; [4]) | IC50 (L. donovani NMT; [5]) | Ldon LE (L. donovani NMT) | IC50 (L. donovani NMT; [6]) | IC50 (L. donovani NMT; [7]) | IC50 (T brucei NMT) | IC50 (P. falciparum NMT)
5 | Cn1c(CN2CCC(c3cc(F)cc(F)c3)CC2)nc2cc(Cl)ccc21 [PF-03665853] | 35.4 µM | 0.56 µM | 0.51 µM | 0.91 µM | 0.91 µM | 0.32 | >88 | – | – | – | > 80 µM | > 80 µM | – | –
6 | Cc1cc2nc(N(C)C3CCN(C)CC3)nc(N(C)CCC#N)c2s1 [PF-00349412] | – | 11.5 µM | 9 µM | – | – | – | – | – | – | 0.34 | 0.482 µM | 0.48 µM | 56.2 µM | 39.6 µM
